From PubChem BioAssay (NCI)
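These data come from cells grown in 96-well plates and exposed to compound for 48 hours at five concentrations. The concentration for 50% growth inhibition is given as GI50. At the TGI there is no net growth.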

Legend:
Test in all cases: NCI tumour cell line growth inhibition, 48 h
HCT-116 colon = test system: HCT-116 colon
NCI-H522 lung = test system: NCI-H522 lung
LOX IMVI melanoma = test system: LOX IMVI melanoma
SNB-19 CNS = test system: SNB-19 CNS
PC-3 prostate = test system: PC-3 prostate
HCT-15 colon = test system: HCT-15 colon
EKVX NSCLC = test system: EKVX NSCLC
UO-31 renal = test system: UO-31 renal
UACC-62 melanoma = test system: UACC-62 melanoma
CAKI-1 renal = test system: CAKI-1 renal

SMILES	TGI (HCT-116 colon) [µM]	TGI (NCI-H522 lung) [µM]	GI50 (LOX IMVI melanoma) [µM]	TGI (LOX IMVI melanoma) [µM]	TGI (SNB-19 CNS) [µM]	GI50 (PC-3 prostate) [µM]	TGI (PC-3 prostate) [µM]	TGI (HCT-15 colon) [µM]	TGI (EKVX NSCLC) [µM]	TGI (UO-31 renal) [µM]	TGI (UACC-62 melanoma) [µM]	GI50 (HCT-116 colon) [µM]	GI50 (SNB-19 CNS) [µM]	GI50 (CAKI-1 renal) [µM]	TGI (CAKI-1 renal) [µM]	GI50 (HCT-15 colon) [µM]	GI50 (EKVX NSCLC) [µM]	GI50 (UACC-62 melanoma) [µM]	GI50 (NCI-H522 lung) [µM]	GI50 (UO-31 renal) [µM]
C=C(C)[C@]12CC(C)C34OC(/C=C\C=C\CCCCCCCCC)(O[C@@H]1[C@@H]3[C@@H]1O[C@]1(CO)[C@@H](O)[C@]1(O)C(=O)C(C)=C[C@@H]41)O2 (stereo partly drawn)	21	30.7	1.48	3.88	30.5	< 0.0001	12.9	25.4	27.8	24.8	24									
O=C(CC(C(=O)O)N1CCOCC1)c1ccccc1 (stereo not drawn)	27	> 100		33.6	53.4		36	40.8	38.4		29.5									
O=C(CN=Cc1cccs1)CSC(c1ccccc1)c1ccccc1	40.7		25.8	82.2	> 100	17.5	47.9	57.3	96.9		36.9	16.4	32.5	24.9	67.1	17.7	26.2	16.2		
COC1C(CO)OC(n2c3ccccc3c3c4c(c5c6ccccc6[nH]c5c32)C(=O)NC4=O)C(O)C1OC(=O)C(N)CCCCN (stereo not drawn)		3.55	0.261		> 50	1.43	> 42.3	> 39.5	8.86	5.5	1.3		1.31	1.21	11.7	8.98	1.69	0.283	0.168	0.997
C#Cc1ccc(-n2c(/C=C/c3cc(OC)c(OC)c(OC)c3)nc3ncccc3c2=O)cc1	> 100	6.29	4.61	64	> 100	3.96	> 100	> 100		> 100	> 100	5.17	16.2	6.07	> 100	5.58		6.9	2.33	4.09
O=C1CC2Sc3ccccc3N=C2N1c1ccc(Cl)cc1Cl (stereo not drawn)	> 100			> 100	> 100				> 100	> 100	> 100									
CC(C)=C1CCC(CN2CCCC2)C1=O (stereo not drawn)	31.6			> 100	> 100			35.5	> 100	36.1	> 100				28.9					
Cc1cccc(N2C(=O)/C(=C/c3ccc(N(CCC#N)CCC#N)cc3C)N=C2c2cc([N+](=O)[O-])ccc2Cl)c1	> 100	> 100			> 100			> 100	> 100	> 100	> 100				> 100					
O=C(OCc1nc2ccc(Br)cc2c(=O)n1-c1ccccc1)c1ccccc1O	> 100	> 100		> 100					> 100	> 100	> 100				> 100					
COc1ccc(N(Cc2cc(OC)c(OC)c(OC)c2)C2OC(=O)c3ccccc32)cc1 (stereo not drawn)	> 100	3.11	0.712	> 100		0.666	> 100	> 100		> 100	> 100	0.426		0.532	> 100	0.424		0.498	0.286	2.3
CCOc1cccnc1/C=N/NC(N)=S	> 100	> 100	2.7	14	> 100	3.9	> 100	> 100		26.6		4.26	4.43	3.51	> 100	4.08			3.05	2.9
CCOC(=O)NNC(=O)NC12CC3CC(CC(C3)C1)C2	> 100	> 100		> 100	> 100			> 100	> 100	> 100	> 100				> 100					
CCOC(=N)CC(=O)NC(C)c1ccccc1 (stereo not drawn)	> 100	> 100		> 100	> 100			> 100	> 100	> 100	> 100				> 100					
O=C1/C(=C/c2ccccc2)CN(C(=O)OCC(Cl)(Cl)Cl)C/C1=C\c1ccccc1	2.6			2.06	11.9			4.32		12.1	9.03									
Cc1cccc(CC(C)(C)C)c1NC(=O)C(=O)C(C(=O)c1ccc2ccccc2c1)C1OC(=O)c2ccccc21 (stereo not drawn)	> 100	26.7		43.9	46.9			41.4	82.1	31.1	21.7				> 100					
C[C@]12CC[C@@H]3c4ccc(O)cc4CC[C@H]3[C@@H]1CC[C@@H]2NS(=O)(=O)c1ccc(-c2ccccc2)cc1	11.4	27.2	10.6	23.9	> 100	3.18	48.9	16.5		> 100	20	2.88	4.92	3.57	> 100	3.04		4.2	4.26	3.56
Cc1[nH]c(=O)nc(N/N=C/c2ccc(O)cc2)c1C(=O)Nc1ccc(Cl)cc1	> 100	> 100			> 100			> 100	> 100	> 100	> 100				> 100					
CCN1CC2(C)CC[C@@H](OC)C34[C@@H]2[C@H](OC(C)=O)C2(OCO[C@@]25C[C@H](OC)C2C[C@]3(O)[C@@H]5[C@H]2O)[C@H]14	> 100	> 100		> 100	> 100				> 100	> 100					> 100					
O=c1[nH]c(-c2ccccn2)nc2sc3c(c12)CCCCCC3	> 100	> 100	1.09	> 100		4.05	> 100	> 100		> 100	> 100	1.37		3.29	> 100	2.35		5.51	> 100	5.87
